The assay addresses T1, GPR84 (Homo sapiens, UniProt Q9NQS5).
T1 construct: expressed in transfected cells
Briefly: GPR84 [35S]GTPγS binding assay, HEPES buffer. The class given is biochemical. The note with it: 3,3′ di indolylmethane at EC80, membranes from stable cell line over expressing GPR84. In outline:
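Membranes from a stable GPR84-overexpressing cell line (20 μg/well), pre-incubated with 0.1 μM GDP for 15 min at 4° C, mixed with 0.1 nM [35S]GTPγS and WGA SpA beads in 20 mM HEPES pH 7.4, 5 mM MgCl2, 250 mM NaCl, 0.05% BSA, 75 ug/mL saponin. Incubated 90 min at room temperature; scintillation proximity read after centrifugation.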
For orientation: Binding of GTPγS marks nucleotide exchange on a G protein.

Each structure is given as a SMILES string.

T1 sequence (Q9NQS5 whole entry): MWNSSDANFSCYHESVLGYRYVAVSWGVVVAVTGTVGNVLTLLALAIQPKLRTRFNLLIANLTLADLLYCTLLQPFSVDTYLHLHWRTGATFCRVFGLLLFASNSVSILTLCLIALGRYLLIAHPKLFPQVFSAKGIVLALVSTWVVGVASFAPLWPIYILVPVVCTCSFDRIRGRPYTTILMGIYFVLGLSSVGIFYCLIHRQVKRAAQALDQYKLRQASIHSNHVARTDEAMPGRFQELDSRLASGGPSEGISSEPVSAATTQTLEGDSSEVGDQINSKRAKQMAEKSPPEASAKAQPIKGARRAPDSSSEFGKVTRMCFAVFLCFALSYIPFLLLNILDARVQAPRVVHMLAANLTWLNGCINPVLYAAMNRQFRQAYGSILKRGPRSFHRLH

As for `N#Cc1ccc2c(c1)CCn1c-2cc(OCC2COc3ncccc3O2)nc1=O` (stereo not shown) [compound 152, 2-(2,3-dihydro-[1,4]dioxino[2,3-b]pyridin-2-ylmethoxy)-4-oxo-6,7-dihydro-4H-pyrimido[6,1-a]isoquinoline-9-carbonitrile], the IC50 (commonly the concentration at which inhibition is half-maximal) was in the range of 100 to 500 nM.

`O=c1nc(OCC2COc3ncccc3O2)cc2n1CCc1cc(NCc3ncco3)ccc1-2` (stereo not shown) [compound 153, 2-(2,3-dihydro-[1,4]dioxino[2,3-b]pyridin-2-ylmethoxy)-9-[(oxazol-2-ylmethyl)-amino]-6,7-dihydro-pyrimido[6,1-a]isoquinolin-4-one]: the IC50 was 0.01 to 100 nM.

Molecule `Cc1nc(COc2ccc3c(c2)CCn2c-3cc(OCC3COc4ncccc4O3)nc2=O)no1` (stereo not shown) [compound 154, 2-(2,3-dihydro-[1,4]dioxino[2,3-b]pyridin-2-ylmethoxy)-9-(5-methyl-[1,2,4]oxadiazol-3-ylmethoxy)-6,7-dihydro-pyrimido[6,1-a]isoquinolin-4-one] showed a 50% inhibitory concentration (IC50) of 0.01 to 100 nM.

The molecule `CCc1nc(COc2ccc3c(c2)CCn2c-3cc(OCC3COc4ncccc4O3)nc2=O)no1` (stereo not shown) [compound 155, 2-(2,3-dihydro-[1,4]dioxino[2,3-b]pyridin-2-ylmethoxy)-9-(5-ethyl-[1,2,4]oxadiazol-3-ylmethoxy)-6,7-dihydro-pyrimido[6,1-a]isoquinolin-4-one] yielded an IC50 of 0.01 to 100 nM.

In turn, `O=c1nc(OCC2COc3ncccc3O2)cc2n1CCc1cc(OCc3noc(C4CC4)n3)ccc1-2` (stereo not shown) [compound 156, 9-(5-cyclopropyl-[1,2,4]oxadiazol-3-ylmethoxy)-2-(2,3-dihydro-[1,4]dioxino[2,3-b]pyridin-2-ylmethoxy)-6,7-dihydro-pyrimido[6,1-a]isoquinolin-4-one] came in with an IC50 of 0.01 to 100 nM.

As to `CC(C)c1nc(COc2ccc3c(c2)CCn2c-3cc(OCC3COc4ncccc4O3)nc2=O)no1` (stereo not shown) [compound 157, 2-(2,3-dihydro-[1,4]dioxino[2,3-b]pyridin-2-ylmethoxy)-9-(5-isopropyl-[1,2,4]oxadiazol-3-ylmethoxy)-6,7-dihydro-pyrimido[6,1-a]isoquinolin-4-one], the IC50 lay in the range of 0.01 to 100 nM.

For `CC(C)(C)c1nc(COc2ccc3c(c2)CCn2c-3cc(OCC3COc4ncccc4O3)nc2=O)no1` (stereo not shown) [compound 158, 9-(5-tert-Butyl-[1,2,4]oxadiazol-3-ylmethoxy)-2-(2,3-dihydro-[1,4]dioxino[2,3-b]pyridin-2-ylmethoxy)-6,7-dihydro-pyrimido[6,1-a]isoquinolin-4-one], the IC50 lay in the range of 0.01 to 100 nM.

In the case of `Cc1cc(COc2ccc3c(c2)CCn2c-3cc(OCC3COc4ncccc4O3)nc2=O)on1` (stereo not shown) [compound 159, 2-(2,3-dihydro-[1,4]dioxino[2,3-b]pyridin-2-ylmethoxy)-9-(3-methyl-isoxazol-5-ylmethoxy)-6,7-dihydro-pyrimido[6,1-a]isoquinolin-4-one], the IC50 lay in the range of 0.01 to 100 nM.

Molecule `COc1nccc(-c2ccc3c(c2)CCn2c-3cc(OCC3COc4ncccc4O3)nc2=O)c1Cl` (stereo not shown) [compound 160, 9-(3-chloro-2-methoxy-pyridin-4-yl)-2-(2,3-dihydro-[1,4]dioxino[2,3-b]pyridin-2-ylmethoxy)-6,7-dihydro-pyrimido[6,1-a]isoquinolin-4-one] yielded a half-maximal inhibitory concentration (IC50) of 0.01 to 100 nM.

In the case of `O=c1nc(OCC2COc3ncccc3O2)cc2n1CCc1cc(C3=CCOCC3)ccc1-2` (stereo not shown) [compound 161, 2-(2,3-dihydro-[1,4]dioxino[2,3-b]pyridin-2-ylmethoxy)-9-(3,6-dihydro-2H-pyran-4-yl)-6,7-dihydro-pyrimido[6,1-a]isoquinolin-4-one], the concentration for half-maximal inhibition (IC50) was 0.01 to 100 nM.

Consider `N#Cc1ccc(-c2ccc3c(c2)CCn2c-3cc(OCC3COc4ncccc4O3)nc2=O)cn1` (stereo not shown) [compound 162, 5-[2-(2,3-dihydro-[1,4]dioxino[2,3-b]pyridin-2-ylmethoxy)-4-oxo-6,7-dihydro-pyrimido[6,1-a]isoquinolin-9-yl]-pyridine-2-carbonitrile], for which the half-maximal inhibitory concentration (IC50) fell in the range of 0.01 to 100 nM.

As for `CCOc1ncccc1-c1ccc2c(c1)CCn1c-2cc(OCC2COc3ncccc3O2)nc1=O` (stereo not shown) [compound 163, 2-(2,3-dihydro-[1,4]dioxino[2,3-b]pyridin-2-ylmethoxy)-9-(2-ethoxy-pyridin-3-yl)-6,7-dihydro-pyrimido[6,1-a]isoquinolin-4-one], the IC50 was 0.01 to 100 nM.

`CCOc1ccc(-c2ccc3c(c2)CCn2c-3cc(OCC3COc4ncccc4O3)nc2=O)cn1` (stereo not shown) [compound 164, 2-(2,3-dihydro-[1,4]dioxino[2,3-b]pyridin-2-ylmethoxy)-9-(6-ethoxy-pyridin-3-yl)-6,7-dihydro-pyrimido[6,1-a]isoquinolin-4-one] yielded a half-maximal inhibitory concentration (IC50) of 0.01 to 100 nM.

The molecule `O=c1nc(OCC2COc3ncccc3O2)cc2n1CCc1cc(-c3ccc(N4CCOCC4)nc3)ccc1-2` (stereo not shown) [compound 165, 2-(2,3-dihydro-[1,4]dioxino[2,3-b]pyridin-2-ylmethoxy)-9-(6-morpholin-4-yl-pyridin-3-yl)-6,7-dihydro-pyrimido[6,1-a]isoquinolin-4-one] yielded an IC50 of 0.01 to 100 nM.

In the case of `COc1ncc(-c2ccc3c(c2)CCn2c-3cc(OCC3COc4ncccc4O3)nc2=O)cn1` (stereo not shown) [compound 166, 2-(2,3-dihydro-[1,4]dioxino[2,3-b]pyridin-2-ylmethoxy)-9-(2-methoxy-pyrimidin-5-yl)-6,7-dihydro-pyrimido[6,1-a]isoquinolin-4-one], the IC50 is 0.01 to 100 nM.

With `COc1cccc(-c2ccc3c(c2)CCn2c-3cc(OCC3COc4ncccc4O3)nc2=O)c1OC` (stereo not shown) [compound 167, 2-(2,3-dihydro-[1,4]dioxino[2,3-b]pyridin-2-ylmethoxy)-9-(2,3-dimethoxy-phenyl)-6,7-dihydro-pyrimido[6,1-a]isoquinolin-4-one], the IC50 lay in the range of 0.01 to 100 nM.

In turn, `COc1ccc(OC)c(-c2ccc3c(c2)CCn2c-3cc(OCC3COc4ncccc4O3)nc2=O)c1` (stereo not shown) [compound 168, 2-(2,3-dihydro-[1,4]dioxino[2,3-b]pyridin-2-ylmethoxy)-9-(2,5-dimethoxy-phenyl)-6,7-dihydro-pyrimido[6,1-a]isoquinolin-4-one] showed a half-maximal inhibitory concentration (IC50) of 0.01 to 100 nM.

Regarding `N#CCCOCC#Cc1ccc2c(c1)CCn1c-2cc(OCC2COc3ncccc3O2)nc1=O` (stereo not shown) [compound 170, 3-{3-[2-(2,3-dihydro-[1,4]dioxino[2,3-b]pyridin-2-ylmethoxy)-4-oxo-6,7-dihydro-4H-pyrimido[6,1-a]isoquinolin-9-yl]-prop-2-ynyloxy}-propionitrile], the half-inhibitory concentration (IC50) was in the range of 0.01 to 100 nM.

Take `CNCC#Cc1ccc2c(c1)CCn1c-2cc(OCC2COc3ncccc3O2)nc1=O` (stereo not shown) [compound 171, 2-(2,3-dihydro-[1,4]dioxino[2,3-b]pyridin-2-ylmethoxy)-9-(3-methylamino-prop-1-ynyl)-6,7-dihydro-pyrimido[6,1-a]isoquinolin-4-one]: the IC50 lay in the range of 500 to 1000 nM.

`CN(C)CC#Cc1ccc2c(c1)CCn1c-2cc(OCC2COc3ncccc3O2)nc1=O` (stereo not shown) [compound 172, 2-(2,3-dihydro-[1,4]dioxino[2,3-b]pyridin-2-ylmethoxy)-9-(3-dimethylamino-prop-1-ynyl)-6,7-dihydro-pyrimido[6,1-a]isoquinolin-4-one] returned an IC50 of 0.01 to 100 nM.

Take `CN(CC#Cc1ccc2c(c1)CCn1c-2cc(OCC2COc3ncccc3O2)nc1=O)Cc1ccccc1` (stereo not shown) [compound 173, 9-[3-(benzyl-methyl-amino)-prop-1-ynyl]-2-(2,3-dihydro-[1,4]dioxino[2,3-b]pyridin-2-ylmethoxy)-6,7-dihydro-pyrimido[6,1-a]isoquinolin-4-one]: the half-inhibitory concentration (IC50) was 100 to 500 nM.

With `O=c1nc(OCC2COc3ncccc3O2)cc2n1CCc1cc(C#CCN3CCS(=O)(=O)CC3)ccc1-2` (stereo not shown) [compound 174, 2-(2,3-dihydro-[1,4]dioxino[2,3-b]pyridin-2-ylmethoxy)-9-[3-(1,1-dioxo-thiomorpholin-4-yl)-prop-1-ynyl]-6,7-dihydro-pyrimido[6,1-a]isoquinolin-4-one], the IC50 lay within 100 to 500 nM.

Molecule `NC(=O)NCC#Cc1ccc2c(c1)CCn1c-2cc(OCC2COc3ncccc3O2)nc1=O` (stereo not shown) [compound 175, {3-[2-(2,3-Dihydro-[1,4]dioxino[2,3-b]pyridin-2-ylmethoxy)-4-oxo-6,7-dihydro-4H-pyrimido[6,1-a]isoquinolin-9-yl]-prop-2-ynyl}-urea] gave an IC50 of 0.01 to 100 nM.

Molecule `O=C1CN(CC#Cc2ccc3c(c2)CCn2c-3cc(OCC3COc4ncccc4O3)nc2=O)C(=O)N1` (stereo not shown) [compound 176, 1-{3-[2-(2,3-Dihydro-[1,4]dioxino[2,3-b]pyridin-2-ylmethoxy)-4-oxo-6,7-dihydro-4H-pyrimido[6,1-a]isoquinolin-9-yl]-prop-2-ynyl}-imidazolidine-2,4-dione] yielded an IC50 of 100 to 500 nM.

`CCN(CC)CC#Cc1ccc2c(c1)CCn1c-2cc(OCC2COc3ncccc3O2)nc1=O` (stereo not shown) [compound 177, 9-(3-diethylamino-prop-1-ynyl)-2-(2,3-dihydro-[1,4]dioxino[2,3-b]pyridin-2-ylmethoxy)-6,7-dihydro-pyrimido[6,1-a]isoquinolin-4-one]: the half-maximal inhibitory concentration (IC50) fell in the range of 100 to 500 nM.

`CC(C)(N)C#Cc1ccc2c(c1)CCn1c-2cc(OCC2COc3ncccc3O2)nc1=O` (stereo not shown) [compound 178, 9-(3-amino-3-methyl-but-1-ynyl)-2-(2,3-dihydro-[1,4]dioxino[2,3-b]pyridin-2-ylmethoxy)-6,7-dihydro-pyrimido[6,1-a]isoquinolin-4-one]: the IC50 was 100 to 500 nM.

`O=c1nc(OCC2COc3ncccc3O2)cc2n1CCc1cc(OCC3CCCCO3)ccc1-2` (stereo not shown) [compound 179, 2-(2,3-dihydro-[1,4]dioxino[2,3-b]pyridin-2-ylmethoxy)-9-(tetrahydro-pyran-2-ylmethoxy)-6,7-dihydro-pyrimido[6,1-a]isoquinolin-4-one] had an IC50 of 0.01 to 100 nM.

In turn, `NC1(C#Cc2ccc3c(c2)CCn2c-3cc(OCC3COc4ncccc4O3)nc2=O)CCCCC1` (stereo not shown) [compound 184, 9-(1-amino-cyclohexylethynyl)-2-(2,3-dihydro-[1,4]dioxino[2,3-b]pyridin-2-ylmethoxy)-6,7-dihydro-pyrimido[6,1-a]isoquinolin-4-one] registered an IC50 of 100 to 500 nM.

The record behind these values is patent publication US9708312B2, “Dihydropyrimidinoisoquinolinones and pharmaceutical compositions thereof for the treatment of inflammatory disorders (GPR84 antagonists)” (GALAPAGOS NV, priority 2012, dated 2017).
